Active and inactive are the calls of the source.
Assays:
[1] = target: T1, Microphthalmia-associated transcription factor (Homo sapiens, UniProt O75030); experiment: TRPM1 promoter luciferase signal decrease, dose response, MITF inhibitor project, cell-based, SK-MEL-5, cherry-picked, set 3 (AID 493073); type: functional
T1 sequence (O75030 whole entry): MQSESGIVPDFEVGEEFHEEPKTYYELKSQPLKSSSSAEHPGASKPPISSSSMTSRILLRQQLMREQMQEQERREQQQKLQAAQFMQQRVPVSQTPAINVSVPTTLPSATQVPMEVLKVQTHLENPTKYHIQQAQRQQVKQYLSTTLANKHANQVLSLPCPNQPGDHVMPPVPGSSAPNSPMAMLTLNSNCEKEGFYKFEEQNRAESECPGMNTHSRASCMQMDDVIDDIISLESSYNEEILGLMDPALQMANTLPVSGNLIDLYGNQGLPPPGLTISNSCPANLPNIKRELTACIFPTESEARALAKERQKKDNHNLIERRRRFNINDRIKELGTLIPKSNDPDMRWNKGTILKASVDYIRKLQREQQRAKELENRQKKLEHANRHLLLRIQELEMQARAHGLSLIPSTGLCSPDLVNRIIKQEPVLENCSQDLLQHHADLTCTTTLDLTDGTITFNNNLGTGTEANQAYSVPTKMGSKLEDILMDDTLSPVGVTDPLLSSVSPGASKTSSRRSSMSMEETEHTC

Paired box protein Pax-8 = Paired box protein Pax-8 (Homo sapiens, UniProt Q06710); experiment: inhibitors of PAX8-driven TPO luciferase reporter, dose response, RMG-I cells, cherry-pick (AID 687027); type: functional, cell-based;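 note: luciferase reporter driven by Pax8 target thyroperoxidase promoter measured by SteadyGlo luminescence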
Chain of Paired box protein Pax-8 (Q06710 whole entry): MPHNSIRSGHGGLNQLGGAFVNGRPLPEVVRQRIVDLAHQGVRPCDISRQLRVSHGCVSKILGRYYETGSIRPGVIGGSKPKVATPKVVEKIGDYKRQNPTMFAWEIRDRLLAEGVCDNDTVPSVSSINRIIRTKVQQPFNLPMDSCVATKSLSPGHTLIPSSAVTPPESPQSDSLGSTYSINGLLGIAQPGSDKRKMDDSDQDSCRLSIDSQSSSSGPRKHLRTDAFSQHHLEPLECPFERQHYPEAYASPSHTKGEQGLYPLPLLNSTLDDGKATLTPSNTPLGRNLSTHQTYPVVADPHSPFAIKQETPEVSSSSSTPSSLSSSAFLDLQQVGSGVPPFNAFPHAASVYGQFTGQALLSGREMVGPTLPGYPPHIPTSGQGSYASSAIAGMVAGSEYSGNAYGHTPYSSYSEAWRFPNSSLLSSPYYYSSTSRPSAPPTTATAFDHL

[2] = cytotoxicity in HEK-293T cells, dose response, cytotoxicity control for TCR NF-kB inhibitor project, luminescence, T-cell screen hits (AID 489026); type: functional, cell-based;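 note: cells exposed to compound about 14 hours before the viability readout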
[3] = target: DNA dC->dU-editing enzyme APOBEC-3G (Homo sapiens, UniProt Q9HC16); type: functional;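 note: Dose-response counterscreen measuring inhibition of APOBEC3G DNA deaminase activity, run while confirming APOBEC3A inhibitors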
Chain of DNA dC->dU-editing enzyme APOBEC-3G (Q9HC16 whole entry): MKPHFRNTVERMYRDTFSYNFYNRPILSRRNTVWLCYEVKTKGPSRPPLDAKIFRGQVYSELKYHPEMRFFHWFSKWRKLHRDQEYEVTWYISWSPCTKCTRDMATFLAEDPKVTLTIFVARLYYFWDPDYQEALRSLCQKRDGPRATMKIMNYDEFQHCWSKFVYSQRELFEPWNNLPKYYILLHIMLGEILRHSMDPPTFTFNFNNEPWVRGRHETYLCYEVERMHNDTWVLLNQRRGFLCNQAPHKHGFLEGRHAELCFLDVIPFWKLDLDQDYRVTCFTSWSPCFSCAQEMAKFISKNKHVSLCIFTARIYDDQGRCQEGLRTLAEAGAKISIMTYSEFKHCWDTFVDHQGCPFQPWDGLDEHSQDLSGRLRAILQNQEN

[4] = target: DNA dC->dU-editing enzyme APOBEC-3A (Homo sapiens, UniProt P31941); experiment: Dose Response confirmation of small molecule APOBEC3A DNA Deaminase Inhibitors via a fluorescence-based single-stranded DNA deaminase assay. [Related pubchem assays (depositor defined):AID493011, AID493024]; type: functional
Chain of DNA dC->dU-editing enzyme APOBEC-3A (P31941 whole entry): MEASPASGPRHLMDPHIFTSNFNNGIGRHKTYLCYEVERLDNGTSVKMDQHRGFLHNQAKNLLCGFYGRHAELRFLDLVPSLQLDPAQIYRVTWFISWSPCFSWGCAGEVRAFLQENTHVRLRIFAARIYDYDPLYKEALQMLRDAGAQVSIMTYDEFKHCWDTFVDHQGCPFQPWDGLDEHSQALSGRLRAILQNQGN

Aminopeptidase N = target: T2, Aminopeptidase N (Plasmodium falciparum FcB1/Columbia, UniProt O96935); experiment: P. falciparum M1AAP inhibitors, biochemical, fluorogenic H-Leu-NHMec substrate, 1536-well (AID 1445); parameters: species or system Plasmodium falciparum 3D7, 3D7
T2 sequence (O96935 whole entry): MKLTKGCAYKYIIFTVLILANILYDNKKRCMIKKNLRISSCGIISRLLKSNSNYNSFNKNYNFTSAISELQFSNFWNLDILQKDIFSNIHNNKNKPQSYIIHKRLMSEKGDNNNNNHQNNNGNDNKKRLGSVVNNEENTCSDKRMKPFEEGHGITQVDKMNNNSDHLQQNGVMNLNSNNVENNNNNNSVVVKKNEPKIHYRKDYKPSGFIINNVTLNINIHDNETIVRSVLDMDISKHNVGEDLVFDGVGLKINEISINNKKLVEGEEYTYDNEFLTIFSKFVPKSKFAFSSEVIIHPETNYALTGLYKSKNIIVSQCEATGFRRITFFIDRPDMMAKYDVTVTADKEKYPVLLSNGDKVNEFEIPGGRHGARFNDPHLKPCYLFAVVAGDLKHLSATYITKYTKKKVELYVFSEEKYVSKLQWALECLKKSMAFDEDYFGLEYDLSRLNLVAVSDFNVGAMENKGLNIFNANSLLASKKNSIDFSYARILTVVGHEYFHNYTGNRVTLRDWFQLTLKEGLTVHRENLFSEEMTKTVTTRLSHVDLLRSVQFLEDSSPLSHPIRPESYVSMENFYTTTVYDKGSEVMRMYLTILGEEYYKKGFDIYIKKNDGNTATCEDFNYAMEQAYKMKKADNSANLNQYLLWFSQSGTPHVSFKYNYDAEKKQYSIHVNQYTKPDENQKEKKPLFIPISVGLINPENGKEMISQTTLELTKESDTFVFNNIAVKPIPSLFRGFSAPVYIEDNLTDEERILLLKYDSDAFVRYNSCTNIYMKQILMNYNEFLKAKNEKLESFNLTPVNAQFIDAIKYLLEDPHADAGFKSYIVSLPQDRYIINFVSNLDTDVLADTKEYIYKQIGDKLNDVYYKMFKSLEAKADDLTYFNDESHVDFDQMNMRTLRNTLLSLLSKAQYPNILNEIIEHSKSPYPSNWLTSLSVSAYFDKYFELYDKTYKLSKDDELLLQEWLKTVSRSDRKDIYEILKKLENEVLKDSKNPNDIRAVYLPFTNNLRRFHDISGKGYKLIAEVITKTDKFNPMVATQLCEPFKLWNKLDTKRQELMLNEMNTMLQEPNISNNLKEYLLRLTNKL

[5] = target: T3, Heat shock factor protein 1 (Mus musculus, UniProt P38532); experiment: HSF1 potentiators in luciferase reporter cells, confirmation, cell-based, NIH3T3, luminescence, dose retest (AID 435004); type: functional;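 note: stress induced by proteasome inhibitor MG132 added 30 min after compound; luciferase reporter driven by HSF1 response element in NIH3T3 cells; actives raise luminescence as potentiators of the MG132 stress response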
T3 sequence (P38532 whole entry): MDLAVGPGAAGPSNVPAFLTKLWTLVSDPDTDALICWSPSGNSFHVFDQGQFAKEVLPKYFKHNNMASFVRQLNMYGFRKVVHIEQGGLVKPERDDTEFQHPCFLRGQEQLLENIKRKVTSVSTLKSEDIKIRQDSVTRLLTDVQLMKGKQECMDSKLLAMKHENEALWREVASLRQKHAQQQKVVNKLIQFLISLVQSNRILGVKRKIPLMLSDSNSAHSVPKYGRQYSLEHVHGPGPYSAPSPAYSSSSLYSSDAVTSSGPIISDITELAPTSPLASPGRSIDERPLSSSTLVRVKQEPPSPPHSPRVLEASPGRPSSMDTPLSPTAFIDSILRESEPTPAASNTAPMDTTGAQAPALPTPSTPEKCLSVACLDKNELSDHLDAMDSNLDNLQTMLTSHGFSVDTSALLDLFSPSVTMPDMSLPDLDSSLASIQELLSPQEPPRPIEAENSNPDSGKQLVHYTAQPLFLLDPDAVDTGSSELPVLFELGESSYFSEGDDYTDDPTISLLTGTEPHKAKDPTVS

[6] = target: Heat shock protein HSP 90-alpha (Homo sapiens, UniProt P07900); type: functional, organism-based
[7] = target: Voltage-dependent T-type calcium channel subunit alpha-1H (Homo sapiens, UniProt O95180); type: functional;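 note: channel activity triggered by adding a high calcium stimulation buffer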
Chain of Voltage-dependent T-type calcium channel subunit alpha-1H (O95180 whole entry): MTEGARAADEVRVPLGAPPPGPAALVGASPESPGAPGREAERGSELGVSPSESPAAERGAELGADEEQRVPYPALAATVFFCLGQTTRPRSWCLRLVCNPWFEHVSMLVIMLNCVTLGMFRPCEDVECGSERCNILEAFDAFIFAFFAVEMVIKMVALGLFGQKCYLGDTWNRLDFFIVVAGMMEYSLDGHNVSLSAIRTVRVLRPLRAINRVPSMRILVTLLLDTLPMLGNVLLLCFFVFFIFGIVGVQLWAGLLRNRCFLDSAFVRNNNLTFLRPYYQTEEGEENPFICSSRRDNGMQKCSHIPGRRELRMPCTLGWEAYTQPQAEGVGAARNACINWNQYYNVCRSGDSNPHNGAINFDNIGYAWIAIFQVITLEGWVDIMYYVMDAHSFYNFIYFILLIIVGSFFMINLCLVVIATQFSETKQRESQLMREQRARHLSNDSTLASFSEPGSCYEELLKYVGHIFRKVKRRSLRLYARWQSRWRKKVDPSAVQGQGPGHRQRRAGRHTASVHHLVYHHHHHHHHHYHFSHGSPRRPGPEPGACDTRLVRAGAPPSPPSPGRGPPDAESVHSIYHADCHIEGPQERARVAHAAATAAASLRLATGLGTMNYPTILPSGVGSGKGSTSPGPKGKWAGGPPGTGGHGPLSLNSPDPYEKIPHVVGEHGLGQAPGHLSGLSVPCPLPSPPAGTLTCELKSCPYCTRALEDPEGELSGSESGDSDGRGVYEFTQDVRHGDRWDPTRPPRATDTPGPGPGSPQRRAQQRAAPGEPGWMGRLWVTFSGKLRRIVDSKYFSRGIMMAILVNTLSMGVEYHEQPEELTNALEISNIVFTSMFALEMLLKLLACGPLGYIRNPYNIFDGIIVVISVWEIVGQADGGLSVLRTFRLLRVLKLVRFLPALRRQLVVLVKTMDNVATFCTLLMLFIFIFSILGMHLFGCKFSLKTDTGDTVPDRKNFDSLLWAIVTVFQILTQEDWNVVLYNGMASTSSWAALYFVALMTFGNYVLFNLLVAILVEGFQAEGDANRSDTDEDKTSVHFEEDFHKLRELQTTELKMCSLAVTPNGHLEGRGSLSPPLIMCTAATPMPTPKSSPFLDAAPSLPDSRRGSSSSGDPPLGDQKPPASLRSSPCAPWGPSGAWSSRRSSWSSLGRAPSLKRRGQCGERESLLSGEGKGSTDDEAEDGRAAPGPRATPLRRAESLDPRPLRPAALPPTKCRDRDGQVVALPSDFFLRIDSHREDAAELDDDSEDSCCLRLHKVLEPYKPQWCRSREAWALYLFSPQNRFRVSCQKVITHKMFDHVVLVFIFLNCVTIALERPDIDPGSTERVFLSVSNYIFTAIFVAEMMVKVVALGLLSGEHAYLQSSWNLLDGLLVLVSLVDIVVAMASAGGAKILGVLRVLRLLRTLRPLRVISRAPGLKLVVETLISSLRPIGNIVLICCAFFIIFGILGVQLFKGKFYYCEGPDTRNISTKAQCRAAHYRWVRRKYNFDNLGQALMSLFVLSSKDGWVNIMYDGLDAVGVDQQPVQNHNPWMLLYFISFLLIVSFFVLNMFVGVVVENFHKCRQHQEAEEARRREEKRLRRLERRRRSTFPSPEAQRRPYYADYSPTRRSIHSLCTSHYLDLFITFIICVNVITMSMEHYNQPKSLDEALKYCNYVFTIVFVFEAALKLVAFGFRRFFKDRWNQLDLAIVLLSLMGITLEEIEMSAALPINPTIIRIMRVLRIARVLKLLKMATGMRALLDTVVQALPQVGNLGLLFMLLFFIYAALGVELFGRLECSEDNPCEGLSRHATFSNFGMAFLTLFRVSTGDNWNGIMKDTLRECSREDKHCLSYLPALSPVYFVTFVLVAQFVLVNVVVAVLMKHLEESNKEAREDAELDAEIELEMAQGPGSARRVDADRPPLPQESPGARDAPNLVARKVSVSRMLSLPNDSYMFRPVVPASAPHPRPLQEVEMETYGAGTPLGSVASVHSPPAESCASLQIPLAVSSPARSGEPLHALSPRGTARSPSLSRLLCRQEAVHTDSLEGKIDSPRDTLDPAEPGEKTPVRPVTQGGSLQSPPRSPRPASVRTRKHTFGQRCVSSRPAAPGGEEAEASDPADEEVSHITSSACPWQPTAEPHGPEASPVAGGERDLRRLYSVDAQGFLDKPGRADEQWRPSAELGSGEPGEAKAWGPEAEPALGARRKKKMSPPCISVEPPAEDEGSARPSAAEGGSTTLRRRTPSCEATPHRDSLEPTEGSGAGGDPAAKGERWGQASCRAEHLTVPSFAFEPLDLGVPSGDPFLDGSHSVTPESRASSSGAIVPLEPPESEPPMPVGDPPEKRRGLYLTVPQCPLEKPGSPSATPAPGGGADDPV

Cytochrome P450 2C9 = Cytochrome P450 2C9 (Homo sapiens, UniProt P11712)
Chain of Cytochrome P450 2C9 (P11712 whole entry): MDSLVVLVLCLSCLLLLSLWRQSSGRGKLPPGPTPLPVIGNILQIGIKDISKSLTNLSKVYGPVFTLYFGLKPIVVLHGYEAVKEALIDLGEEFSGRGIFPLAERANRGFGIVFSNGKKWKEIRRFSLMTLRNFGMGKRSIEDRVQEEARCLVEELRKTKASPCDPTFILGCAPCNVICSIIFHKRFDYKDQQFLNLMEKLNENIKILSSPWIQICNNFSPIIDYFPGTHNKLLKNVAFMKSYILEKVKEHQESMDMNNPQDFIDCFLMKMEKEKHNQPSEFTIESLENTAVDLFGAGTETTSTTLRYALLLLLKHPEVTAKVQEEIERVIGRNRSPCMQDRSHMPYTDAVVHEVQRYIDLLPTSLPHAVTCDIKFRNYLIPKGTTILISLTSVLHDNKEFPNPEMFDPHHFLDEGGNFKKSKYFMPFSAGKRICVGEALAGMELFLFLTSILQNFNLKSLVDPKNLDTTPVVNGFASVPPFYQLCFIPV

Cytochrome P450 2C19 = Cytochrome P450 2C19 (Homo sapiens, UniProt P33261); experiment: Cytochrome panel assay with activity outcomes. Panel member name: p450-cyp2c19 Compounds with AC50 equal or less than 10 uM are considered active; type: functional; details: read-out: AC50
Chain of Cytochrome P450 2C19 (P33261 whole entry): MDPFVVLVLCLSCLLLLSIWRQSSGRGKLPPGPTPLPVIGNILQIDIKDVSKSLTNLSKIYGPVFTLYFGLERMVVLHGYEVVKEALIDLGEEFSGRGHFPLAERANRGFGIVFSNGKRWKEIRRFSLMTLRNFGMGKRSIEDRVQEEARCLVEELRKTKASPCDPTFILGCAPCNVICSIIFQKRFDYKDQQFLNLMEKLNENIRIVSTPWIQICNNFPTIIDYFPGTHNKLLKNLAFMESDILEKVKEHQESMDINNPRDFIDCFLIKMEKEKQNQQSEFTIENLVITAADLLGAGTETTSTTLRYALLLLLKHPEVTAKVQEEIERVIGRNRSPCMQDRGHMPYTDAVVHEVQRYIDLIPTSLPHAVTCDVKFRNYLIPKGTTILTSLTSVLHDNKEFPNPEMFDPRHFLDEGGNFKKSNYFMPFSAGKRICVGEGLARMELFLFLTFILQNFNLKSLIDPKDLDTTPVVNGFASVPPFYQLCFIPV

Cytochrome P450 3A4 = Cytochrome P450 3A4 (Homo sapiens, UniProt P08684);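 note: CYP3A4 tested as one member of a cytochrome P450 panel screen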
Leucine aminopeptidase = target: T4, Leucine aminopeptidase (Plasmodium falciparum 3D7, UniProt Q8IL11); experiment: P. falciparum M17LAP inhibitors, primary screen, biochemical, fluorogenic H-Leu-NHMec substrate, 1536-well (AID 1619); type: functional
T4 sequence (Q8IL11 whole entry): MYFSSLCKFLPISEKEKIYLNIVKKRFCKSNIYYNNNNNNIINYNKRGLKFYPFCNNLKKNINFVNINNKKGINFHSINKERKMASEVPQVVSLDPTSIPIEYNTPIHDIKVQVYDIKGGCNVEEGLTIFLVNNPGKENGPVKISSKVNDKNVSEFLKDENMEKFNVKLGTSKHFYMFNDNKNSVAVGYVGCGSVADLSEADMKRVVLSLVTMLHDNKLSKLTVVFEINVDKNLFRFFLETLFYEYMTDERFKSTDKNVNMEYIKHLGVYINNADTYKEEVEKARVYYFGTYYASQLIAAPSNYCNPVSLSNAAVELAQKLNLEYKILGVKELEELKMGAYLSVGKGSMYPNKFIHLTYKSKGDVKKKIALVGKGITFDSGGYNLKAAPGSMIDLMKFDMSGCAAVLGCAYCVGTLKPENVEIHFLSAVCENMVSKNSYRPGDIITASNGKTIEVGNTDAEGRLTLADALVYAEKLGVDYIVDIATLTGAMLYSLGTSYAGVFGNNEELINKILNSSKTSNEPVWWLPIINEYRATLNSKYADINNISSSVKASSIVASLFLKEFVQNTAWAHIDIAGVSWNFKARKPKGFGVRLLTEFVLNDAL

[8] = target: Induced myeloid leukemia cell differentiation protein Mcl-1 (Homo sapiens, UniProt Q07820); type: functional
Chain of Induced myeloid leukemia cell differentiation protein Mcl-1 (Q07820 whole entry): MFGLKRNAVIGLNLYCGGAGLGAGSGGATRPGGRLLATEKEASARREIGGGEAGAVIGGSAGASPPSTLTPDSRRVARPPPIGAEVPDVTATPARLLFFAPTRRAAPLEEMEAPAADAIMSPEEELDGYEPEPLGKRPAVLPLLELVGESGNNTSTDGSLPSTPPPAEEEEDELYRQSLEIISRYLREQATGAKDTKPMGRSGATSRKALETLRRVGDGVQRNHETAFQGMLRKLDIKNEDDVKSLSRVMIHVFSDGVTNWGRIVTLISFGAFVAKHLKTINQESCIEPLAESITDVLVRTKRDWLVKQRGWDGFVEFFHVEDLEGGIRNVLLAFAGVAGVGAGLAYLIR

[9] = THP-1 cell cytotoxicity, dose response, cytotoxicity control for non-replicating M. tuberculosis project (AID 489025); type: functional
cells = type: functional
[10] = microbe, parasite or virus in culture; type: functional; details: Mycobacterium tuberculosis

COc1cc(C2C(C#N)=C(N)Oc3cc4c(cc32)OCO4)cc(OC)c1OC (stereo not drawn)
AC50 [1]: 0.365 µM (active)
AC50 (Paired box protein Pax-8): 0.553 µM (active)
IC50 [2]: > 80 µM (inactive)

Nc1cc(N)nc(SCC(=O)Nc2ccc(Br)cc2Cl)n1
IC50 [3]: 6.06 µM (active)
IC50 [4]: 4.42 µM (active)

O=C(Nn1c(C2CCC2)nc2ccccc2c1=O)C1CCC1
IC50 (Aminopeptidase N): 48.2 µM (active)

O=C(C#Cc1ccccc1)c1cccc([N+](=O)[O-])c1
AC50 [1]: 3.62 µM (active)
EC50 [5]: > 260 µM (inconclusive)
AC50 [6]: 0.75 µM (active)

Cc1cccc(C2=NCC(=O)N(CC(=O)NCc3ccco3)c3sc4c(c32)CCCC4)c1
EC50 [7]: 4.37 µM (active)

COc1ccc(C(=O)NCc2cn3ccccc3n2)cc1
AC50 (Cytochrome P450 2C9): inconclusive
AC50 (Cytochrome P450 2C19): 20 µM (inconclusive)
AC50 (Cytochrome P450 3A4): 28.2 µM (inconclusive)

CCn1nc(C(=O)Nc2cccc3ccccc23)c(Cl)c1Cl
EC50 [7]: 10.5 µM (active)

Cc1ccc2[nH]c(C)c(/C=C3/C(=N)N4C(=NC3=O)SN=C4S(=O)(=O)C(C)C)c2c1
IC50 (Leucine aminopeptidase): 7.16 µM (active)
IC50 (Aminopeptidase N): 9.85 µM (active)
IC50 [8]: 11.8 µM (not active)

Cc1ccc(CC(=O)N2CCN(c3ccc([N+](=O)[O-])cc3)CC2)cc1
CC50 [9]: > 40 µM (active)

CN1C(=O)/C(=C/c2cccc(Cl)c2)Sc2ccc(C(=O)N3CCCC3)cc21
IC50 (cells): 34.4 µM (active)
CC50 [9]: 9.59 µM (active)
CC50 [10]: 25.5 µM (active)

COc1ccccc1C1=NOC(COC(=O)c2ccc3ccccc3n2)C1 (stereo not drawn)
AC50 (Cytochrome P450 2C9): inconclusive

Cc1ccc(-n2nnnc2Sc2nc([N+](=O)[O-])nn2C)c(C)c1
AC50 [1]: 39.6 µM (active)

Source: ChEMBL document CHEMBL1201862, “PubChem BioAssay data set” (2004)
